From US20250388574A1, “HETEROCYCLIC COMPOUNDS AS TRIGGERING RECEPTOR EXPRESSED ON MYELOID CELLS 2 AGONISTS AND METHODS OF USE” (AMGEN INC., priority 2020, published 2025)

Target: hTREM2 (Homo sapiens, UniProt Q9NZC2)
Assay: Phospho-Syk AlphaScreen/AlphaLISA assay in TREM2 and DAP12 overexpressing HEK293 cells (Example A1)
Format: cell-based
Set-up: expressed in transfected cells
Settings: HEK293 cells; for EC50: read-out: hTREM2 EC50
In short: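 Agonism read as Syk phosphorylation: compounds in 1% DMSO applied 45 min at room temperature to TREM2/DAP12-HEK293 cells after 20 h culture. Lysis buffer with phosphatase inhibitors and anti-phospho-Syk plus biotinylated anti-Syk antibodies, then AlphaLISA beads (680 nm excitation); percent of control computed from antibody/isotype wells, curves fitted sigmoidally.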

hTREM2, sequence (Q9NZC2 19-230): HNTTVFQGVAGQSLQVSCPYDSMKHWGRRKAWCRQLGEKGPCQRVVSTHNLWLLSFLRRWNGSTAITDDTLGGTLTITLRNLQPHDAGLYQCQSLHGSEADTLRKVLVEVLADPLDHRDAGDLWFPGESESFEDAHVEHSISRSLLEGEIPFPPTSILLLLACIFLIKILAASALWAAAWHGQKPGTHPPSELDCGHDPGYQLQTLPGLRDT
hTREM2, sequence (O43914 22-113 partner): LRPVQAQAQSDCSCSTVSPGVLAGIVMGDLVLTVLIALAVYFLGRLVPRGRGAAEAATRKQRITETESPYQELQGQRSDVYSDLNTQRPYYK

Row | SMILES | Emax | EC50 [nM]
1 | COc1cccc([C@H]2CN(c3cc4nc(C)n(C)c(=O)c4c(-c4ccc(Cl)cc4F)n3)CCO2)c1 (single isomer, unassigned) [Example 80] | ++++ (Emax>300) | 50 to 500
2 | Cc1cnn([C@H]2CCCN(c3cc4nc(C)n(C)c(=O)c4c(-c4ccc(Cl)cc4F)n3)C2)c1 [Example 231, (S)-5-(4-chloro-2-fluorophenyl)-2,3-dimethyl-7-(3-(4-methyl-1H-pyrazol-1-yl)piperidin-1-yl)pyrido[4,3-d]pyrimidin-4(3H)-one] | +++ (Emax>200 and ≤300) | 500 to 3000
3 | Cc1nc2cc(N3CCO[C@@H](c4cnn(C5CN(C(=O)OC(C)(C)C)C5)c4)C3)nc(-c3ccc(Cl)cc3F)c2c(=O)n1C [Example 134, 2-methyl-2-propanyl 3-(4-((2S)-4-(5-(4-chloro-2-fluorophenyl)-2,3-dimethyl-4-oxo-3,4-dihydropyrido[4,3-d]pyrimidin-7-yl)-2-morpholinyl)-1H-pyrazol-1-yl)-1-azetidinecarboxylate] | ++++ (Emax>300) | 50 to 500
4 | CCCn1c(C)nc2cc(N3CCO[C@@H](c4ccnn4C)C3)nc(-c3ccc(Cl)cc3F)c2c1=O [Example 155, 5-(4-chloro-2-fluorophenyl)-2-methyl-7-((2R)-2-(1-methyl-1H-pyrazol-5-yl)-4-morpholinyl)-3-propylpyrido[4,3-d]pyrimidin-4(3H)-one] | ++++ (Emax>300) | 50 to 500
5 | Cc1nc2cc(N3CCC[C@H](c4cnn(C)c4)C3)nc(-c3ccc(Cl)cc3F)c2c(=O)n1C (single isomer, unassigned) [Example 100] | +++ (Emax>200 and ≤300) | 50 to 500
6 | Cc1ccc([C@@H]2C[C@H](c3cc4nc(C)n(C)c(=O)c4c(-c4ccc(Cl)cc4F)n3)CCO2)cn1 [Example 274, 5-(4-chloro-2-fluorophenyl)-2,3-dimethyl-7-((2S,4R)-2-(6-methylpyridin-3-yl)tetrahydro-2H-pyran-4-yl)pyrido[4,3-d]pyrimidin-4(3H)-one] | ++++ (Emax>300) | 50 to 500
7 | Cc1nc2cc(N3CC[C@H](c4ccccc4)C3)nc(-c3ccc(Cl)cc3F)c2c(=O)n1C [Example 206, (R)-5-(4-chloro-2-fluorophenyl)-2,3-dimethyl-7-(3-phenylpyrrolidin-1-yl)pyrido[4,3-d]pyrimidin-4(3H)-one] | ++ (Emax>100 and ≤200) | 3000 to 100000
8 | Cc1nc2cc(N3CCC(F)(F)[C@H](N4CCC4)C3)nc(-c3ccc(Cl)cc3F)c2c(=O)n1C [Example 249, (R)-7-(3-(azetidin-1-yl)-4,4-difluoropiperidin-1-yl)-5-(4-chloro-2-fluorophenyl)-2,3-dimethylpyrido[4,3-d]pyrimidin-4(3H)-one] | ++++ (Emax>300) | 500 to 3000
9 | CCCn1c(C)nc2cc(N3CCO[C@H](c4ccnn4C)C3)nc(-c3ccc(Cl)cc3F)c2c1=O [Example 154, 5-(4-chloro-2-fluorophenyl)-2-methyl-7-((2S)-2-(1-methyl-1H-pyrazol-5-yl)-4-morpholinyl)-3-propylpyrido[4,3-d]pyrimidin-4(3H)-one] | ++++ (Emax>300) | 3000 to 100000
10 | Cc1nc2cc(N3CCO[C@@H](c4cnn(C)c4)C3)nc(-c3ccc(C(F)(F)F)cc3F)c2c(=O)n1C [Example 13, 5-(2-fluoro-4-(trifluoromethyl)phenyl)-2,3-dimethyl-7-((2S)-2-(1-methyl-1H-pyrazol-4-yl)-4-morpholinyl)pyrido[4,3-d]pyrimidin-4(3H)-one] | ++++ (Emax>300) | 50 to 500
11 | Cc1nc2cc(N3CCOC(c4noc(-c5ccccc5)n4)C3)nc(-c3ccc(Cl)cc3F)c2c(=O)n1C (stereo not shown) [Example 93, 5-(4-chloro-2-fluorophenyl)-2,3-dimethyl-7-(2-(5-phenyl-1,2,4-oxadiazol-3-yl)-4-morpholinyl)pyrido[4,3-d]pyrimidin-4(3H)-one] | +++ (Emax>200 and ≤300) | 500 to 3000
12 | Cc1nc2cc([C@H]3CCO[C@@H](c4cnn(C5CC5)c4)C3)nc(-c3ccc(Cl)cc3F)c2c(=O)n1C (single isomer, unassigned) [Example 165] | +++ (Emax>200 and ≤300) | < 50
13 | Cc1nc2cc(N3CCO[C@@H](c4cnn(C)c4)C3)nc(-c3cc(F)c(Cl)cc3F)c2c(=O)n1C [Example 11, 5-(4-chloro-2,5-difluorophenyl)-2,3-dimethyl-7-((2S)-2-(1-methyl-1H-pyrazol-4-yl)-4-morpholinyl)pyrido[4,3-d]pyrimidin-4(3H)-one] | ++++ (Emax>300) | 50 to 500
14 | Cc1nc2cc(N3CCO[C@H](c4cnn(C)c4)C3)nc(-c3ccc(Cl)cc3)c2c(=O)n1C [Example 6, 5-(4-chlorophenyl)-2,3-dimethyl-7-((2R)-2-(1-methyl-1H-pyrazol-4-yl)-4-morpholinyl)pyrido[4,3-d]pyrimidin-4(3H)-one] | ++ (Emax>100 and ≤200) | 500 to 3000

Continued, values first:

Row | Emax | EC50 [nM] | SMILES
15 | +++ (Emax>200 and ≤300) | 50 to 500 | Cc1nc2cc(N3CCO[C@@H](c4cnn(C)c4)C3)nc(-c3ccc(Cl)cc3F)c2c(=O)n1C [Example 1, 5-(4-chloro-2-fluorophenyl)-2,3-dimethyl-7-((2S)-2-(1-methyl-1H-pyrazol-4-yl)-4-morpholinyl)pyrido[4,3-d]pyrimidin-4(3H)-one]
16 | ++++ (Emax>300) | 50 to 500 | Cc1nc2cc(N3CCCC(c4cnco4)C3)nc(-c3ccc(Cl)cc3F)c2c(=O)n1C (stereo not shown) [Example 105, 5-(4-chloro-2-fluorophenyl)-2,3-dimethyl-7-(3-(1,3-oxazol-5-yl)-1-piperidinyl)pyrido[4,3-d]pyrimidin-4(3H)-one]
17 | ++++ (Emax>300) | < 50 | Cc1nc2cc(N3CCO[C@@H](c4cnn(C(F)F)c4)C3)nc(-c3ccc(Cl)cc3F)c2c(=O)n1C [Example 253, (S)-5-(4-chloro-2-fluorophenyl)-7-(2-(1-(difluoromethyl)-1H-pyrazol-4-yl)morpholino)-2,3-dimethylpyrido[4,3-d]pyrimidin-4(3H)-one]
18 | ++++ (Emax>300) | < 50 | COc1cc([C@@H]2CN(c3cc4nc(C)n(C)c(=O)c4c(-c4ccc(Cl)cc4F)n3)CCO2)ccn1 [Example 243, (R)-5-(4-chloro-2-fluorophenyl)-7-(2-(2-methoxypyridin-4-yl)morpholino)-2,3-dimethylpyrido[4,3-d]pyrimidin-4(3H)-one]
19 | ++++ (Emax>300) | 500 to 3000 | Cc1noc([C@H]2CCCN(c3cc4nc(C)n(C)c(=O)c4c(-c4ccc(Cl)cc4F)n3)C2)n1 [Example 230, (S)-5-(4-chloro-2-fluorophenyl)-2,3-dimethyl-7-(3-(3-methyl-1,2,4-oxadiazol-5-yl)piperidin-1-yl)pyrido[4,3-d]pyrimidin-4(3H)-one]
20 | ++++ (Emax>300) | 50 to 500 | Cc1nc2cc(N3CCO[C@H](c4ccsc4)C3)nc(-c3ccc(Cl)cc3F)c2c(=O)n1C (single isomer, unassigned) [Example 54]
21 | ++++ (Emax>300) | 3000 to 100000 | Cc1nc2cc(N3CCO[C@H](c4ccsc4)C3)nc(-c3ccc(Cl)cc3F)c2c(=O)n1C [Example 240, (R)-5-(4-chloro-2-fluorophenyl)-2,3-dimethyl-7-(2-(thiophen-3-yl)morpholino)pyrido[4,3-d]pyrimidin-4(3H)-one]
22 | ++++ (Emax>300) | 50 to 500 | Cc1nc([C@@H]2CN(c3cc4nc(C)n(C)c(=O)c4c(-c4ccc(Cl)cc4F)n3)CCO2)no1 [Example 200, (S)-5-(4-chloro-2-fluorophenyl)-2,3-dimethyl-7-(2-(5-methyl-1,2,4-oxadiazol-3-yl)morpholino)pyrido[4,3-d]pyrimidin-4(3H)-one]
23 | ++++ (Emax>300) | 500 to 3000 | Cc1nc2cc(N3CCOC(CC(F)(F)F)C3)nc(-c3ccc(Cl)cc3F)c2c(=O)n1C (stereo not shown) [Example 53, 5-(4-chloro-2-fluorophenyl)-2,3-dimethyl-7-(2-(2,2,2-trifluoroethyl)-4-morpholinyl)pyrido[4,3-d]pyrimidin-4(3H)-one]
24 | +++ (Emax>200 and ≤300) | 500 to 3000 | Cc1nnc([C@@H]2CN(c3cc4nc(C)n(C)c(=O)c4c(-c4ccc(Cl)cc4F)n3)CCO2)o1 (single isomer, unassigned) [Example 58]
25 | +++ (Emax>200 and ≤300) | 50 to 500 | Cc1nc2cc(N3CCC(C(F)F)C3)nc(-c3ccc(Cl)cc3F)c2c(=O)n1C (stereo not shown) [Example 120, 5-(4-chloro-2-fluorophenyl)-7-(3-(difluoromethyl)-1-pyrrolidin-yl)-2,3-dimethylpyrido[4,3-d]pyrimidin-4(3H)-one]
26 | +++ (Emax>200 and ≤300) | 500 to 3000 | Cc1nc2cc(N3CCO[C@H]([C@H]4CCO4)C3)nc(-c3ccc(Cl)cc3F)c2c(=O)n1C (single isomer, unassigned) [Example 41]
27 | ++++ (Emax>300) | 500 to 3000 | Cc1nc2cc(N3CCOC(C4CCC4)C3)nc(-c3ccc(Cl)cc3F)c2c(=O)n1C (stereo not shown) [Example 33, 5-(4-chloro-2-fluorophenyl)-7-(2-cyclobutyl-4-morpholinyl)-2,3-dimethylpyrido[4,3-d]pyrimidin-4(3H)-one]
28 | ++ (Emax>100 and ≤200) | 3000 to 100000 | Cc1nc2cc(N3CCC[C@H](N4CCC4)C3)nc(-c3ccc(Cl)cc3F)c2c(=O)n1C [Example 245, (S)-7-(3-(azetidin-1-yl)piperidin-1-yl)-5-(4-chloro-2-fluorophenyl)-2,3-dimethylpyrido[4,3-d]pyrimidin-4(3H)-one]
29 | +++ (Emax>200 and ≤300) | 50 to 500 | Cc1cc([C@@H]2CN(c3cc4nc(C)n(C)c(=O)c4c(-c4ccc(Cl)cc4F)n3)CCO2)ccn1 [Example 62, 5-(4-chloro-2-fluorophenyl)-2,3-dimethyl-7-((2R)-2-(2-methyl-4-pyridinyl)-4-morpholinyl)pyrido[4,3-d]pyrimidin-4(3H)-one]
